Literature values, collected in patent US20230310544A1, “ANTI-RNA VIRAL PHARMACEUTICAL COMBINATION THERAPY WITH APROTININ + anti-RNA DRUG” (ASAVI LLC, priority 2022, published 2023).

What was measured:
COVID-19 = COVID-19 patients
SARS-CoV-2 = conditions: human, in vivo

NC(=O)c1nc(F)c[nH]c1=O [FVP, favipiravir]
time to clinical improvement (COVID-19): ≤ 14 days | time to viral clearance (COVID-19): ≤ 7 days | Median time to elimination of SARS-CoV-2 confirmed by RT-PCR, days (IQR) (SARS-CoV-2): 4.5 days | Median time to improvement in clinical status by 2 points on the WHO-OSCI, days (IQR) (SARS-CoV-2): 14.0 days | Median time to normalization of body temperature (<37° C.), days (IQR) (SARS-CoV-2): 2.0 days
